Assay [1] has as its target T1, chimeric receptor hRGR (human retinoic acid receptor with hGR DNA-binding domain) (Homo sapiens, UniProt P10276, INS60IETQSSSSEEIVPSPPSPPPLPRPPKLCLVCSDEASGCHYGVLTCGSCKVFFKRAVEGQHNYLCAGRNDCIIDKIRRKNCPACRYRKCLQAGMNLES).
T1 construct: expressed in transfected cells; host or cells: CV-1 (African Green monkey kidney) cells, cotransfected with pRShRGR and pMTVCAT
T1 sequence (P10276 with tags, fused parts or gaps isoform P10276-3 INS60IETQSSSSEEIVPSPPSPPPLPRPPKLCLVCSDEASGCHYGVLTCGSCKVFFKRAVEGQHNYLCAGRNDCIIDKIRRKNCPACRYRKCLQAGMNLES): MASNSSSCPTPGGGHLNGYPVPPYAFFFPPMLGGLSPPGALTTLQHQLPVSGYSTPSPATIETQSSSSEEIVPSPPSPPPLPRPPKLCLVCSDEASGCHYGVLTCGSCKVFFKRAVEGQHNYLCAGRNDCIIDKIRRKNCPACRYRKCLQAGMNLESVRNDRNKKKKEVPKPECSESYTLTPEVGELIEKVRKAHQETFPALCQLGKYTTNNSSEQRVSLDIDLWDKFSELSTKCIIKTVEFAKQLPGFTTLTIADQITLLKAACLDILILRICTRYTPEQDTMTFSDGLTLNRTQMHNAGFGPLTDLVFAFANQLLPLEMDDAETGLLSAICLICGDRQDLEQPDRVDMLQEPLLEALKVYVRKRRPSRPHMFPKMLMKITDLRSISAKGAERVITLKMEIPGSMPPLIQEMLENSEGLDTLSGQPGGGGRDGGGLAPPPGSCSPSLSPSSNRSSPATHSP
In words: Functional ligand identification assay: CAT induction in CV-1 cells cotransfected with pRShRGR and MTV-CAT. The class given is cell-based. The settings on record: for Induction of CAT activity of the hybrid receptor by natural and synthetic non-retinoid ligands: pRShRGR + pMTVCAT, single 1 μM dose (FIG. 3A legend); for Induction of CAT activity of the hybrid receptor (in words): pRShRGR + MTV-CAT, FIG. 2B at 100 nM, FIG. 3A increasing concentrations. An excerpt: Since the ligand for the gene product of phRAR1 was unknown, it was desirable to develop a quick and sensitive assay to reveal its identity. […] This chimera recognizes the glucocorticoid responsive element of the MMTV-LTR but stimulates transcription in an estrogen-dependent fashion (see Green, et al., (1987)). This led us to wonder if a general domain-swapping strategy could be exploited to identify the ligand-binding properties of a novel hormone receptor. To test this approach we first substituted the DNA-binding domain of the phRAR1 gene product with the well described DNA-binding domain from the hGR (FIG. 2A). (This chimeric construction, when expressed in suitable host cells, produces a hybrid receptor protein whose ligand-binding domain region must bind with a functional exogenous ligand before the ligand/receptor complex can bind to a GRE, thereby activating a glucocorticoid inducible promoter.)
To assay for the presence of a functional ligand the chimeric receptor gene was transfected into suitable host cells along with a suitable GRE linked reporter gene. CV-1 cells were used for the assay along with a MMTV-CAT reporter gene. (MMTV-CAT is carried on reporter plasmid, GM-CAT, which has been deposited with the American Type Culture Collection for patent purposes; see the section of this specification labeled, "Deposits"). […] For example, the growth hormone promoter can be functionally linked to the bacterial CAT gene. Since the growth hormone promoter contains a thyroid responsive transcription element, such a reporter plasmid can be used to assay hybrid thyroid receptor proteins. See the subheading: "Construction of Reporter and Expression Plasmids" in this specification. (Since mineralocorticoid receptors can activate GRE's, a reporter plasmid such as GM-CAT can be used to assay hybrid mineralocorticoid receptor proteins.)
Returning to the functional ligand identification assay, the transfected cells were then systematically challenged with a battery of candidate ligands and induction monitored by changes in CAT activity.
(§1) FIGS. 2A and 2B. 2A, Construction of the chimeric receptor hRGR. The domain-structure of the various constructions are shown schematically, the numbers correspond to the amino acid positions of each domain. The DNA-binding domains are represented by "DNA" and the ligand-binding domains by their respective inducers. The Nor1 and Xho1 sites created by site-directed mutagenesis to permit the exchange of the DNA-binding domains between receptors are indicated.
(§2) Methods. […] The mutant receptors were then transferred to the expression vector pRS (see Giguere, et al., (1986), and the Not1/Xho1 restriction fragment of pRShGRNX containing the hGR DNA-binding domain was introduced into pRShRnx between the Not1 and Xho1 sites to create pRShRGR. B, Cell transfection and CAT assay. The recombinant DNA constructs (5 μg each) were introduced into CV-1 cells by calcium phosphate coprecipitation (see Wigler, et al., (1979)). The cells were then cultured for two days in serum free media supplemented with Nutridoma (Boehringer Mannheim) in presence or absence of inducers. CV-1 cells were then prepared for CAT assays as described by Gorman, et al. (1982) and the assays performed for 3 h using 25 μg of protein extract. All experiments with retinol were conducted in subdued light.
(§3) FIGS. 3A and 3B. 3A, Dose-response to retinoids. […] The levels of CAT activity were plotted as percentages of the maximal response observed in this experiment. […] The values represent the mean of quadruplicate determinations.
Methods. 3A, CV-1 cell cotransfections and CAT assays were performed as described in FIG. 2.

Assay [2] relates to alpha thyroid hormone receptor (rTRα). The settings on record: CV-1 cells, absence or presence of T3 (data not shown).
For assay [3], the system named is beta thyroid hormone receptor (hTRβ). Particulars: CV-1 cells, absence or presence of T3 (data not shown).
For assay [4], the system named is hybrid receptors with an hTRβ carboxyl terminus. In words: Hybrid thyroid/glucocorticoid receptor CAT assay, hybrids with hTRβ carboxyl terminus. Format: cell-based, human. The settings on record: CV-1 cells, FIG. 9.
Experimental: CV-1 cells were used as the receptor-deficient host cells that were transfected with expression plasmids that carry the chimeric RR/TR receptors, and reporter plasmids carrying the CAT reporter gene. […] Acetylated and non-acetylated forms of [^14 C]chloramphenicol were separated by thin layer chromatography, excised, and quantitated by liquid scintillation counting in Econofluor (DuPont) with 5% DMSO. β-galactosidase assays were performed as described by Herbomel et al. (1984). CAT activity is expressed as percent conversion divided by β-galactosidase activity.
The target in assay [5] is T2, phRAR1 gene product (human retinoic acid receptor) (Homo sapiens, UniProt P10276).
T2 sequence (P10276 1-462): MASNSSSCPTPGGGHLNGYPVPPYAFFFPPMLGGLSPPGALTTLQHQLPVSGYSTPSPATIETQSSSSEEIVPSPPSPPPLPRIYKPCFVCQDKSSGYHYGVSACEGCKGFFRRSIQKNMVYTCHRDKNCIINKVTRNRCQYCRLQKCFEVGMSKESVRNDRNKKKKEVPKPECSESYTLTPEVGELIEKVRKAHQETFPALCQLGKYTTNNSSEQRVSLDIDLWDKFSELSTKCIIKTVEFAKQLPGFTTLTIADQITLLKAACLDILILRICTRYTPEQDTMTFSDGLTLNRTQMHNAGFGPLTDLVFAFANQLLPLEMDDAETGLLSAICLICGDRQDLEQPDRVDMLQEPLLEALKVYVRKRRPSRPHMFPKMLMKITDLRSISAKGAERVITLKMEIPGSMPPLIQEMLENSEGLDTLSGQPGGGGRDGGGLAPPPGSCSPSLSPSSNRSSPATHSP
The assay can be described thus: 3H-retinoic acid binding to cytosol extracts of COS-1 cells transfected with pRShRR. Particulars: for Competition of 3H-retinoic acid binding: cytosol of transfected COS-1 cells, 2×10^-8 M 3H-retinoic acid, 1000-fold excess (2×10^-5 M) competitor, 4° C., 16 h. The method, then:
as §3
Methods. 3A, CV-1 cell cotransfections and CAT assays were performed as described in FIG. 2. […] All other products were diluted in ethanol and control cultures received 0.1% solvent (v/v) in media. Dose-response curves of retinoid treatment were performed in triplicate. 3B, Subconfluent COS-1 cells were transfected with 10 μg/dish of a control plasmid (pRS) or pRShRR by the DEAE-Dextran method (see Deans, et al., (1984)). Cells were maintained for 2 days in DMEM with 5% charcoal-treated fetal calf serum, then harvested in TNE (40 mM tris-HCl pH 7.5, 150 mM NaCl, 1 mM EDTA) and lysed by Dounce homogenization in hypotonic buffer (50 mM tris-HCl pH 7.4, 0.1 mM EDTA, 5 mM dithiothreitol,10 mM NaMoO4, 10% glycerol, 0.5 mM phenylmethylsulfonyl fluoride) and centrifuged at 100,000×g for 30 min to yield the cytosol fraction. […] Specific binding was measured by the addition of 2×10^-5 M of competitors. Reactions were carried out at 4° C. for 16 h. […] Reactions were placed on filters for 1 min and then rinsed with 5 ml of washing buffer (50 mM tris-HCl pH 7.4, 0.1 mM EDTA, 0.1% Triton X-100). Filters were dried and counted by liquid scintillation spectrophotometry.

Assay [6] concerns human retinoic acid receptor (hRARα). The assay can be described thus: CAT induction in CV-1 cells cotransfected with pRShRR and MTV-CAT. The class given is cell-based. The settings on record: pRShRR + MTVCAT, 100 nM, 2 days.
Excerpt: as §1, §2

Assay [7] concerns mutated human retinoic acid receptor with Not1 and Xho1 sites (pRShRRNX). The assay can be described thus: CAT induction in CV-1 cells cotransfected with parent vector pRShRRNX and MTV-CAT. Format: cell-based. The settings on record: pRShRRNX + MTVCAT, 100 nM, 2 days.
Excerpt: as §1, §2

Assay [8] has as its system human glucocorticoid receptor (hGR). In words: CAT induction in CV-1 cells cotransfected with pRShGR and MTV-CAT. Particulars: pRShGR + MTVCAT, 100 nM, 2 days. The class given is cell-based.
Excerpt: as §1, §2

For the molecule `C[C@H](CCCC(C)(C)O)[C@H]1CC[C@H]2[C@@H]3CC=C4C[C@@H](O)CC[C@]4(C)[C@H]3CC[C@]12C` [25-OH-cholesterol], the “Induction of CAT activity of the hybrid receptor by natural and synthetic non-retinoid ligands” value in assay [1] is “failed to induce CAT activity”. For the molecule `N[C@@H](Cc1cc(I)c(Oc2ccc(O)c(I)c2)c(I)c1)C(=O)O` [T3, 3,5,3'-triiodo-L-thyronine], the “Activation of transcription from MTV-CAT (no TRE)” value in assay [2] and in assay [3] was “neither the alpha nor the beta thyroid hormone receptor activates transcription” throughout. Moreover, in assay [4], the “Activation of hybrid receptors by hormone” value was “activated”.

As for `N[C@@H](Cc1cc(I)c(Oc2cc(I)c(O)c(I)c2)c(I)c1)C(=O)O` [T4, thyroxine], the “Induction of CAT activity of the hybrid receptor by natural and synthetic non-retinoid ligands” value in assay [1] was “failed to induce CAT activity”. `C=C1CC[C@H](O)C/C1=C/C=C1\CCC[C@]2(C)[C@@H]([C@H](C)CCCC(C)C)CC[C@@H]12` [Vitamin D3]: the “Competition of 3H-retinoic acid binding” value in assay [5] is “did not compete”. For the same molecule, the “Induction of CAT activity of the hybrid receptor by natural and synthetic non-retinoid ligands” value in assay [1] was “failed to induce CAT activity”. For the molecule `C[C@]12CCC(=O)C=C1CC[C@@H]1[C@@H]2[C@@H](O)C[C@]2(C=O)[C@@H](C(=O)CO)CC[C@@H]12` [aldosterone], the “Induction of CAT activity of the hybrid receptor by natural and synthetic non-retinoid ligands” value in assay [1] is on record as “failed to induce CAT activity”. The same measure, in the same setting: in the case of `C[C@]12CCC(=O)C=C1CC[C@@H]1[C@@H]2[C@@H](O)C[C@@]2(C)[C@H]1CC[C@]2(O)C(=O)CO` [cortisol] it was “failed to induce CAT activity”. In the case of `C[C@]12CCC(=O)C[C@@H]1CC[C@@H]1[C@@H]2CC[C@]2(C)[C@@H](O)CC[C@@H]12` [dihydrotestosterone], the “Induction of CAT activity of the hybrid receptor by natural and synthetic non-retinoid ligands” value in assay [1] was “failed to induce CAT activity”.

Take `CC(=O)[C@H]1CC[C@H]2[C@@H]3CCC4=CC(=O)CC[C@]4(C)[C@H]3CC[C@]12C` [progesterone]: the “Induction of CAT activity of the hybrid receptor by natural and synthetic non-retinoid ligands” value in assay [1] is given as “failed to induce CAT activity”. With `CC1=C(/C=C/C(C)=C/C=C/C(C)=C/C(=O)O)C(C)(C)CCC1` [retinoic acid], the “Effect upon CAT activity using wild type gene product hRARα” value in assay [6] was “No effect upon CAT activity”. Further, the “Effect upon CAT activity using parent vector pRShRRNX” value in assay [7] is on record as “No effect upon CAT activity”. In addition, the “Competition of 3H-retinoic acid binding” value in assay [5] is “fully competed”. Besides, the “Induction of CAT activity of the hybrid receptor (in words)” value (shortened to “Induction of CAT activity … (in words)”) in assay [1] is reported as “dramatic increase in CAT activity”. Moreover, the “Induction of hGR (CAT activity)” value in assay [8] is “not induced”. As to `CC1=C(/C=C/C(C)=C/C=C/C(C)=C/CO)C(C)(C)CCC1` [retinol], the “Competition of 3H-retinoic acid binding” value in assay [5] is listed as “only partially”. Besides, in assay [1], the “Induction of CAT activity … (in words)” value is listed as “weak agonist”. Turning to `CCCCCCCCCCCCCCCC(=O)OC/C=C(C)/C=C/C=C(C)/C=C/C1=C(C)CCCC1(C)C` [retinyl palmitate], the “Induction of CAT activity … (in words)” value in assay [1] was “even weaker inducers”. For `C[C@]12CC[C@H]3[C@@H](CCC4=CC(=O)CC[C@@]43C)[C@@H]1CC[C@@H]2O` [testosterone], in assay [1], the “Induction of CAT activity of the hybrid receptor by natural and synthetic non-retinoid ligands” value was “failed to induce CAT activity”. As to ^3 H-retinoic acid, the “Specific binding of 3H-retinoic acid by transfected cells” value in assay [5] (COS-1 cells transfected with pRShRR versus control plasmid pRS) is recorded as “increased capacity to specifically bind”.

In the case of estrogen, the “Induction of CAT activity of the hybrid receptor by natural and synthetic non-retinoid ligands” value in assay [1] is “failed to induce CAT activity”.

The record behind these values is US5599904A, “Chimeric steroid hormone superfamily receptor proteins” (priority 1992, dated 1997).
